This is an account of results in US8247610B2, “Amine linked modulators of γ-secretase” (Janssen Pharmaceutica N.V., priority 2007, dated 2012).

Each structure is given as a SMILES string.

This assay has as its target T1, γ-secretase (Homo sapiens, UniProt P49768).
T1 construct: endogenous in cells; host or cells: SKNBE2 cells carrying APP 695 wild type
The assay can be described thus: Screening for γ-secretase-modulating activity in SKNBE2 cells carrying the APP 695 wild type. The format is cell-based. The following applies: SKNBE2 cells carrying APP 695 wild type. On the procedure: Screening of the Compounds of the Invention for γ-Secretase-Modulating Activity
Screening was carried out using SKNBE2 cells carrying the APP 695—wild type, grown in DMEM/NUT-mix F12 (HAM) provided by Gibco (cat no. 31330-38) containing 5% Serum/Fe supplemented with 1% non-essential amino acids.
Cells were grown to near confluency.
The screening was performed using the assay as described in Citron et al (1997) Nature Medicine 3: 67.

Regarding `CC(C)CCN(Cc1cc(-c2ccc(C(F)(F)F)cc2)cc(C(CC(C)C)C(=O)O)c1)Cc1ccc(F)cc1C(F)(F)F` (stereo not shown) [Compound 60, 2-(5-{[(4-Fluoro-2-trifluoromethyl-benzyl)-(3-methyl-butyl)-amino]-methyl}-4′-trifluoromethyl-biphenyl-3-yl)-4-methyl-pentanoic acid], the EC50 amounted to 300 nM.
The same measure, in the same setting: with `CC(C)CC(C(=O)O)c1cc(-c2ccc(C(F)(F)F)cc2)cc(N(C)c2ccc(Cl)c(C(F)(F)F)c2)c1` (stereo not shown) [Example 9, 2-{5-[(4-Chloro-3-trifluoromethyl-phenyl)-methyl-amino]-4′-trifluoromethyl-biphenyl-3-yl}-4-methyl-pentanoic acid] the figure was 330 nM.
In the case of `CC(C)CC(C(=O)O)c1cc(-c2ccc(C(F)(F)F)cc2)cc(N(C)c2ccc(C(F)(F)F)cc2)c1` (stereo not shown) [Example 19, 4-Methyl-2-{5-[methyl-(4-trifluoromethyl-phenyl)-amino]-4′-trifluoromethyl-biphenyl-3-yl}-pentanoic acid], testing at 0.3 µM gave an inhibition of 22%.
On to `CC(C)CC(C(=O)O)c1cc(-c2ccc(C(F)(F)F)cc2)cc(N(C)c2cc(C(F)(F)F)ccc2C(F)(F)F)c1` (stereo not shown) [Example 12, 2-{5-[(2,5-Bis-trifluoromethyl-phenyl)-methyl-amino]-4′-trifluoromethyl-biphenyl-3-yl}-4-methyl-pentanoic acid], for which the EC50 is 160 nM.
Take `CC(C)CCN(Cc1ccc(C#N)cc1)c1cc(-c2ccc(C(F)(F)F)cc2)cc([C@@H](CC(C)C)C(=O)O)c1` [Compound 48, (R) 2-{5-[(4-Cyano-benzyl)-(3-methyl-butyl)-amino]-4′-trifluoromethyl-biphenyl-3-yl}-4-methyl-pentanoic acid]: at 0.3 µM the inhibition was 31%.
`CC(C)CCN(Cc1ccc(F)cc1)Cc1cc(-c2ccc(C(F)(F)F)cc2)cc(C(CC(C)C)C(=O)O)c1` (stereo not shown) [Compound 62, 2-(5-{[(4-Fluoro-benzyl)-(3-methyl-butyl)-amino]-methyl}-4′-trifluoromethyl-biphenyl-3-yl)-4-methyl-pentanoic acid] showed a 50% effective concentration (EC50) of 130 nM.
The compound `CC(C)CC(C(=O)O)c1cc(NC2CCCc3ccccc32)cc(-c2ccc(C(F)(F)F)cc2)c1` (stereo not shown) [Compound 34, 4-Methyl-2-[5-(1,2,3,4-tetrahydro-naphthalen-1-ylamino)-4′-trifluoromethyl-biphenyl-3-yl]-pentanoic acid] showed an inhibition at 0.3 µM of 22%.
Turning to `CC(C)CC(C(=O)O)c1cc(-c2ccc(C(F)(F)F)cc2)cc(N(C)c2ccc(Cl)cc2)c1` (stereo not shown) [Example 1, 2-{5-[(4-Chloro-phenyl)-methyl-amino]-4′-trifluoromethyl-biphenyl-3-yl}-4-methyl-pentanoic acid], the EC50 stood at 620 nM.
On the same count and under the same terms, to `CC(C)CCN(Cc1cc(C(F)(F)F)cc(C(F)(F)F)c1)c1cc(-c2ccc(C(F)(F)F)cc2)cc([C@@H](CC(C)C)C(=O)O)c1` [Compound 49, (R) 2-{5-[(3,5-Bis-trifluoromethyl-benzyl)-(3-methyl-butyl)-amino]-4′-trifluoromethyl-biphenyl-3-yl}-4-methyl-pentanoic acid] belongs 220 nM.
With `CC(C)CC(C(=O)O)c1cc(-c2ccc(C(F)(F)F)cc2)cc(N2CCc3ccccc3C2)c1` (stereo not shown) [Compound 53, 4-Methyl-2-[-5-(3,4-dihydroisoquinolin-2(1H)-yl)-4′-(trifluoromethyl)biphenyl-3-yl]-pentanoic acid], testing at 0.3 µM gave an inhibition of 0%.
For the compound `CC(C)CCN(c1cc(-c2ccc(C(F)(F)F)cc2)cc(C(CC(C)C)C(=O)O)c1)c1cccc(C(F)(F)F)c1` (stereo not shown) [Example 17, 4-Methyl-2-{5-[(3-methyl-butyl)-(3-trifluoromethyl-phenyl)-amino]-4′-trifluoromethyl-biphenyl-3-yl}-pentanoic acid], a half-maximal response (EC50) required 260 nM.
As to `CC(C)CCN(Cc1ccc(C(C)(C)C)cc1)c1cc(-c2ccc(C(F)(F)F)cc2)cc(C(CC(C)C)C(=O)O)c1` (stereo not shown) [Compound 39, 2-{5-[(4-tert-Butyl-benzyl)-(3-methyl-butyl)-amino]-4′-trifluoromethyl-biphenyl-3-yl}-4-methyl-pentanoic acid], the EC50 turned out to be 580 nM.
Compound `CC(C)CCC(c1cc(F)cc(F)c1)N(C)c1cc(-c2ccc(C(F)(F)F)cc2)cc(C(CC(C)C)C(=O)O)c1` (stereo not shown) [Compound 50, 2-(5-{[1-(3,5-Difluoro-phenyl)-4-methyl-pentyl]-methyl-amino}-4′-trifluoromethyl-biphenyl-3-yl)-4-methyl-pentanoic acid] showed an inhibition at 0.3 µM of 65%.
For the compound `CC(C)C[C@@H](C(=O)O)c1cc(NCc2cc(F)cc(F)c2)cc(-c2ccc(C(F)(F)F)cc2)c1` [Compound 43, (R) 2-[5-(3,5-Difluoro-benzylamino)-4′-trifluoromethyl-biphenyl-3-yl]-4-methyl-pentanoic acid], testing at 0.3 µM gave an inhibition of 0%.
Same read-out and setting: with `CC(C)C[C@@H](C(=O)O)c1cc(NCc2ccc(C#N)cc2)cc(-c2ccc(C(F)(F)F)cc2)c1` [Compound 47, (R) 2-[5-(4-Cyano-benzylamino)-4′-trifluoromethyl-biphenyl-3-yl]-4-methyl-pentanoic acid] the figure was 0%.
On to `CC(C)CC(C(=O)O)c1cc(-c2ccc(C(F)(F)F)cc2)cc(N(C)c2ccc(Cl)cc2)c1` (single isomer, unassigned) [Example 21, (R*)2-{5-[(4-Chloro-phenyl)-methyl-amino]-4′-trifluoromethyl-biphenyl-3-yl}-4-methyl-pentanoic acid], for which the midpoint of the response, the EC50, lay at 1130 nM.
In turn, `CC(C)CC(C(=O)O)c1cc(-c2ccc(C(F)(F)F)cc2)cc(N2CCCc3ccccc32)c1` (stereo not shown) [Compound 28, 2-[5-(3,4-Dihydro-2H-quinolin-1-yl)-4′-trifluoromethyl-biphenyl-3-yl]-4-methyl-pentanoic acid] yielded an inhibition at 0.3 µM of 0%.
Consider `CC(C)CCC(Nc1cc(-c2ccc(C(F)(F)F)cc2)cc(C(CC(C)C)C(=O)O)c1)c1cc(F)c(F)c(F)c1` (stereo not shown) [Compound 38, 4-Methyl-2-{5-[4-methyl-1-(3,4,5-trifluoro-phenyl)-pentylamino]-4′-trifluoromethyl-biphenyl-3-yl}-pentanoic acid], for which the EC50 was 230 nM.
`CC(C)CC(C(=O)O)c1cc(-c2ccc(C(F)(F)F)cc2)cc(N2CCc3ccccc32)c1` (stereo not shown) [Example 24, 2-[5-(2,3-Dihydro-indol-1-yl)-4′-trifluoromethyl-biphenyl-3-yl]-4-methyl-pentanoic acid] yielded an inhibition at 0.3 µM of 0%.
Consider `CC(C)CC(C(=O)O)c1cc(-c2ccc(C(F)(F)F)cc2)cc(N(C)c2cc(F)cc(F)c2)c1` (stereo not shown) [Example 3, 2-{5-[(3,5-Difluoro-phenyl)-methyl-amino]-4′-trifluoromethyl-biphenyl-3-yl}-4-methyl-pentanoic acid], for which the half-maximal effective concentration (EC50) is 450 nM.
Turning to `CC(C)C[C@@H](C(=O)O)c1cc(NCc2cc(C(F)(F)F)cc(C(F)(F)F)c2)cc(-c2ccc(C(F)(F)F)cc2)c1` [Compound 46, (R) 2-[5-(3,5-Bis-trifluoromethyl-benzylamino)-4′-trifluoromethyl-biphenyl-3-yl]-4-methyl-pentanoic acid], at 0.3 µM the inhibition was 6%.
Compound `CC(C)CC(C(=O)O)c1cc(-c2ccc(C(F)(F)F)cc2)cc(N(C)c2cccc(C(F)(F)F)c2)c1` (stereo not shown) [Example 2, 4-Methyl-2-{5-[methyl-(3-trifluoromethyl-phenyl)-amino]-4′-trifluoromethyl-biphenyl-3-yl}-pentanoic acid] displayed a concentration giving a half-maximal response (EC50) of 220 nM.

A word on the EC50: it is the midpoint of the concentration-response curve. For orientation: inhibition means the drop in the measured response relative to a control, in per cent. The low end stands for a weak effect, the high end for a strong effect.
